Results from US10752616B2, “Bicycloheteroaryl-heteroaryl-benzoic acid compounds as retinoic acid receptor beta (RARβ) agonists” (King's College London, priority 2014, dated 2020).
Where two headings read alike, the source gives them in different places.

Experiments:
RARβ [1] = molecular target: T1, RARβ (Mus musculus (Mouse), UniProt P22605); assay: Transactivation assay for RARβ (gal4-RAR fusion, pFR-luc reporter, COS-7 cells), Table 2; assay type: cell-based; settings: COS-7 reporter, mean of three or more determinations, species not stated (method: mouse or human)
Experimental: (§1) Transcriptional transactivation assays were performed with gal4 fusion receptor constructs, created using each of the RAR ligand binding domains of either mouse or human, co-transfected with the pFR-luc (Stratagene) reporter construct in COS-7 cells.
(§2) Briefly, on day 1, 96 well plates were seeded with 8000 cells per well then left to recover overnight. On day 2, the cells were co-transfected with 100 ng of reporter plasmid and 10 ng of the appropriate receptor plasmid per well using lipofectamine (Invitrogen). On day 3, the lipofectamine containing media was replaced by a DMEM without phenol red, followed by the addition of test compound dissolved in 1 μL of DMSO to each well's 100 μL total volume. Finally, on day 4, the cells were lysed and their luciferase substrate was provided by the BrightGlo™ reagent (Promega), the plates were then read on the MicroBeta TriLux™ (Perkin Elmer).
(§3) Data for test compounds are quoted as EC50 values. Where replicate data has been generated, the data are quoted as the mean EC50 from the separate experiments.
(§4) EC50's values are reported as mean values of three or more determinations.

RARβ [2] = molecular target: T1, RARβ; assay: Transactivation assay, mouse RARβ; assay type: cell-based; settings: Table 3, read-out: RARβ potency - EC50
Experimental: as §1, §2, §3

RARα [3] = molecular target: T2, RARα (Mus musculus (Mouse), UniProt P11416); assay: Transactivation assay for RARα (gal4-RAR fusion, pFR-luc reporter, COS-7 cells), Table 2; assay type: cell-based; settings: for EC50: Table 2, COS-7 reporter, mean of three or more determinations, inactive = no agonist action at highest concentration tested
Experimental: as §1, §2, §3, §4

RARγ [4] = molecular target: T3, RARγ (Homo sapiens (Human), UniProt P13631); assay: Transactivation assay, human RARγ; assay type: cell-based
Experimental: as §1, §2, §3
Target sequence in this assay (P13631 185-419): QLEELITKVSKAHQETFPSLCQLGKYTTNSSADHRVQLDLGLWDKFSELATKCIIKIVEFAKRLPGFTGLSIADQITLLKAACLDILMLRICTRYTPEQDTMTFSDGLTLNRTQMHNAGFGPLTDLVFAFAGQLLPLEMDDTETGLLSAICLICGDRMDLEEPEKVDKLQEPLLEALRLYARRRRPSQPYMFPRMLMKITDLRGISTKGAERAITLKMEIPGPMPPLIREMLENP

RARγ [5] = molecular target: T4, RARγ (Mus musculus (Mouse), UniProt P18911); assay: Transactivation assay for RARγ (gal4-RAR fusion, pFR-luc reporter, COS-7 cells), Table 2; assay type: cell-based; settings: for EC50: Table 2, COS-7 reporter, mean of three or more determinations, inactive = no agonist action at highest concentration tested
Experimental: as §1, §2, §3, §4

RARα [6] = molecular target: T5, RARα (Homo sapiens (Human), UniProt P10276); assay: Transactivation assay, human RARα; assay type: cell-based
Experimental: as §1, §2, §3
Target sequence in this assay (P10276 183-417): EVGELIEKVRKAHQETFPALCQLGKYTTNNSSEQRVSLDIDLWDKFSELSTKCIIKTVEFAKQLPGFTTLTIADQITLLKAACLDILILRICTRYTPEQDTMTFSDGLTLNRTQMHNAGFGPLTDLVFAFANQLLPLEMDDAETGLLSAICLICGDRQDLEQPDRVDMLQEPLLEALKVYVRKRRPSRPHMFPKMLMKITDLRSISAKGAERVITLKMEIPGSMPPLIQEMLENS

RARα [7] = molecular target: T2, RARα; assay: Transactivation assay, mouse RARα; assay type: cell-based; settings: Table 3
Experimental: as §1, §2, §3

[8] = tested on: rats with severed sensory roots; assay: Severed and re-implanted sensory roots (DRG, left forelimb) in rats; sticky tape tests; assay type: in vivo; settings: rat, 1 mg/kg two days after lesion, then three times a week
Experimental: In another example of nerve injury, the four sensory roots from each of four DRG at the level of the left forelimb were severed and re-implanted into the spinal cord.
FIGS. 2A and 2B show two graphs of the time taken for rats to sense sticky tape (FIG. 2A) and to remove sticky tape (FIG. 2B) that is placed on its injured forepaw, as a function of the number of weeks after injury. Rats were treated with 1 mg/kg of the test compound or vehicle two days after lesion, and then three times a week for the period of the experiment. Error bars show SEM. ***P<0.001, students t test, n=3-4 rats for each treatment group. At weeks 3, 4, and 5, there was significant difference between the rats treated with RARβ agonist as compared to rats treated with other retinoid agonists and vehicle.

RARγ [9] = molecular target: T4, RARγ; assay: Transactivation assay, mouse RARγ; assay type: cell-based; settings: Table 3
Experimental: as §1, §2, §3

RARβ [10] = molecular target: RARβ (Homo sapiens (Human), UniProt P10826); assay: Transactivation assay, human RARβ; assay type: cell-based
Experimental: as §1, §2, §3

RARα [11] = molecular target: T5, RARα; settings: Bernard et al., 1992; Delescluse et al., 1991; cited from earlier work
Target sequence in this assay (P10276 whole entry, species assumed): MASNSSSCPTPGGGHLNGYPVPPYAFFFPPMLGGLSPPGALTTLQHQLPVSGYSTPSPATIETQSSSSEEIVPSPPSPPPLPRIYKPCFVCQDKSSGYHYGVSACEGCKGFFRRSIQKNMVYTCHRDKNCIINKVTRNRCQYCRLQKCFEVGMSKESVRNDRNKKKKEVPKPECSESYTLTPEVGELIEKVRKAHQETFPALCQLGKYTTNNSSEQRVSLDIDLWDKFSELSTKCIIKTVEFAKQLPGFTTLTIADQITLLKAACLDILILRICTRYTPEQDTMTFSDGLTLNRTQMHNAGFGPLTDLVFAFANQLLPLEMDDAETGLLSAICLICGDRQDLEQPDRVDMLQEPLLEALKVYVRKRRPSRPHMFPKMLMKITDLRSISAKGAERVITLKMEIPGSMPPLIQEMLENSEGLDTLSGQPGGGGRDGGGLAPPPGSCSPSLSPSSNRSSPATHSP

cerebellar neurons = assay: Neurite outgrowth assay, cerebellar neurons in the presence of myelin/MAG; assay type: cell-based, rat
Experimental: (§5) Cerebellar neurons isolated from post-natal day 3 rat pups were cultured over monolayers of parental 3T3 cells in control media, or media supplemented with a recombinant MAG-Fc chimera (R&D Systems) used at a final concentration of 20 μg/mL MAG-Fc. The monolayers were established for 24 hours prior to addition of the neurons and the co-cultures were maintained for approximately 21 hours. Following careful fixation with 4% paraformaldehyde, the neurons were immuno-stained with a GAP-43 antibody (from Graham Wilkin, Imperial College), dilution of 1:500, and the mean length of the longest neurite per cell was measured for approximately 120-150 neurons as previously described (see, e.g., Williams et al., 2005). DRG and cortical explants were obtained from adult rats, they were cultured in cellogen as previously described (see, e.g., Corcoran and Maden, 1999). Three explants per treatment were used. Neurite outgrowth was assessed 3 days later by immunohistochemistry with NF200 (Sigma, dilution of 1:200). The average lengths of the neurites were measured using image pro plus software. Media consisted of DMEM-F12 (Invitrogen) containing N2 (Invitrogen) supplemented with glucose (33 mM) and glutamine (2 mM).

[12] = tested on: rats with crushed corticospinal tract (CST); assay: Corticospinal tract (CST) crush at C4 in rats, i.c.v. treatment; tracing and behavioural tests; assay type: in vivo; settings: rat
Experimental: FIGS. 1A and 1B show two graphs of the number of rat footslips as a function of the number of weeks after lesion, for grid task (FIG. 1A) and beam task (FIG. 1B).
All animal experiments were carried out under UK home office regulations. Dorsal column lesions were performed on adult male rats as previously described (see, e.g., Bradbury et al., 2002). […] The pumps were placed subcutaneously and connected to a brain infusion catheter (Alzet™), which was inserted into the lateral ventricle (Bregma coordinates: rostrocaudal: −0.8 mm, mediolateral: −1.5 mm and dorsoventral: −4.5 mm). […] The dose was based previous in vivo studies on activation of RARα and RARβ signalling in the adult rat brain (see, e.g., Goncalves et al., 2009). Animals which underwent behavioural studies and subsequent tracing (n=6 per treatment) were kept for six weeks before being sacrificed with a lethal injection of pentobarbital and transcardially perfused with 4% PFA. Dissected tissue (cervical and lumbar spinal cord) was processed for immunofluoresence.
Descendent corticospinal tract axons were anterogradely traced after the dorsal column crush was performed by injected BDA (10% in PBS, Mw10K from Molecular Probes) into the motor cortex as previously described (see, e.g., Yip et al., 2006). Six injections were done in the right cortex (0.5 μL of BDA/injection point). Animals (n=6 per treatment) were perfused and the spinal cord was transferred to PBS (plus 0.1% sodium azide) and embedded in gelatin (10%, 300 bloom; Sigma, Poole, UK). Gelatin blocks were hardened in 4% paraformaldehyde, and 40 μm free-floating serial transverse sections were cut on a vibratome (Leica, Nussloch, Germany) and collected in 24-well plates containing PBS (plus 0.1% sodium azide).
BDA was detected using the tyramide amplification kit (Perkin-Elmer) coupled with extra-avidin-FITC (Amersham Pharmacia Biotech, UK, 1:500). All BDA-labelled fibres observed within a 1-mm square grid were counted at measured intervals from 5 mm above to 5 mm below the lesion site by an experimenter, blinded to treatment.
CST neurons were labelled by retrograde tracing injecting 2 μL of 5% Fluorogold (FG, Molecular Probes) 2 mm deep into the cervical spinal cord (C3-C4) at a rate of 0.5 μL/minute (n=3 rats per group). In sham animals, FG was injected 0.5 mm bilateral to the medial line of spinal cord (1 μL per side), and in lesioned animals FG (2 μL) was injected into the injury. After 14 days, the cortices were fixed for 2 hours in 4% paraformaldehyde (PFA), embedded in OCT compound and stored frozen. Sagittal sections (12 μm) were cut and 4 sequential slides containing 2 sections from lateral 3.4-3.9 mm were taken for analysis (see, e.g., Paxinos and Watson, 2002).
Immunohistochemistry was carried out using anti-rabbit phospho-Akt (Cell Signalling technology, dilution of 1:100). Secondary antibody used was anti-rabbit Cy3 conjugated (Jackson, used at 1:1000). Images were captured at 100× magnification using a Roperscientific digital camera.
The behavioural tests were carried out as previously described (see, e.g., Bradbury et al., 2002). Rats (n=6 per treatment group) were first trained for two weeks before surgery to perform grid walk and beam walk; they were then tested by an observer blinded to the experimental treatment once a week for five weeks after lesion.

cortex explants = assay: Neurite outgrowth from cultured cortex of treated lesioned animals; assay type: cell-based, rat; settings: cortex from lesioned rats treated in vivo
Experimental: When pieces of cortex from these RARβ agonist treated animals were cultured, neurite outgrowth was observed, in contrast to cortex from control lesioned animals.
as §5

phospho-Akt = assay: Western blot of cerebellar cultures for phospho-Akt; assay type: cell-based, rat; settings: cerebellar cultures treated with 1 μM
RARγ [13] = molecular target: T3, RARγ; settings: Bernard et al., 1992; Delescluse et al., 1991; cited from earlier work
Target sequence in this assay (P13631 whole entry, species assumed): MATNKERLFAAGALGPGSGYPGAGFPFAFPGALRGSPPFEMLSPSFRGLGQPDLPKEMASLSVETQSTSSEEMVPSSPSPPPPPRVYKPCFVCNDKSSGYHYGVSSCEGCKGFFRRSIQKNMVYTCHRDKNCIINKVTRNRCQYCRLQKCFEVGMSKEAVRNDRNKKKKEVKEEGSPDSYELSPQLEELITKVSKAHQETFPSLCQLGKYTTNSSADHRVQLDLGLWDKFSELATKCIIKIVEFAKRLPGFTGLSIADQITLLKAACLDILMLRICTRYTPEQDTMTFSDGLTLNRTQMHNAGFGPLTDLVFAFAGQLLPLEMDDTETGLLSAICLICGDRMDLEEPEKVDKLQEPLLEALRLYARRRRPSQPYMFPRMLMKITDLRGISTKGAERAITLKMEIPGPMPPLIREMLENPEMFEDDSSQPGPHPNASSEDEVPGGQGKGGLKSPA

[14] = Table 3, Human, read-out: RARβ potency - EC50
[15] = i.c.v. 180 ng/kg/day for 14 days

T2 sequence (P11416 183-417): as the sequence (P10276 183-417) above, with R165K counted along it
T1 sequence (P22605 210-444): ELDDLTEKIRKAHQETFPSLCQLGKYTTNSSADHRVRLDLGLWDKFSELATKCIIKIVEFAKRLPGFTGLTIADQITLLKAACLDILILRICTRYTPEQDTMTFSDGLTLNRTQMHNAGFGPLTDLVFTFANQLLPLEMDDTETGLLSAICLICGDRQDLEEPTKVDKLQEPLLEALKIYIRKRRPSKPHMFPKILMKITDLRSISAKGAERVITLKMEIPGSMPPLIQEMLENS
Chain of RARβ (Homo sapiens (Human), UniProt P10826) (P10826 183-417): as the sequence (P22605 210-444) above
T4 sequence (P18911 185-419): as the sequence (P13631 185-419) above

Row | EC50 (RARβ [1]) [nM] | EC50 (RARβ [2]) [nM] | EC50 (RARα [3]) [nM] | Selectivity over RARγ (RARγ [4]; Table 3, Human) | EC50 (RARγ [5]) [nM] | Selectivity over RARα (RARα [6]; Table 3, Human) | Selectivity over RARα (RARα [7]) | Selectivity over RARγ (RARγ [9]) | EC50 (RARβ [10]; [14]) [nM] | Structure (SMILES) | Behavioural tests after 5 weeks (severed sensory roots) [8] | also measured
1 | 1.94 | 1.94 | 26 | 5-fold | 11 | 23-fold | 14-fold | 6-fold | 2.05 | Cc1ccc(C)c2oc(-c3nc(-c4ccc(C(=O)O)cc4)no3)cc12 [BHBA-001, 4-(5-(4,7-Dimethylbenzofuran-2-yl)-1,2,4-oxadiazol-3-yl)benzoic acid] | performed as well as non-lesioned animals | –
2 | 11.4 | 11.5 | 136 | 2-fold | 29 | 12-fold | 12-fold | 3-fold | 21.4 | Cc1ccc(C)c2oc(-c3nc(-c4ccc(C(=O)O)cc4Cl)no3)cc12 [BHBA-002, 3-Chloro-4-(5-(4,7-dimethylbenzofuran-2-yl)-1,2,4-oxadiazol-3-yl)benzoic acid] | – | RARα/RARβ ratio (RARα [3]; fold-selectivity for RARβ over RARα, >1 = selective for RARβ): 12; RARγ/RARβ ratio (RARγ [5]; fold-selectivity for RARβ over RARγ, >1 = selective for RARβ): 2.5
3 | – | – | – | – | – | – | – | – | – | COc1ccc(-c2ccc3cc(C(=O)O)ccc3c2)cc1C1(C)CCCCC1 [CD2019, 6-(4-methoxy-3-(1-methylcyclohexyl)phenyl)-2-naphthalenecarboxylic acid] | performed as well as non-lesioned animals | Selectivity RARβ over RARα (RARα [11]): 5 fold; Neurite outgrowth of cerebellar neurons grown in the presence of myelin (cerebellar neurons): causes the outgrowth of neurites; Phospho AKT in the injured CST neurons in vivo [12]: induced; BDA labelled CST axons crossing the lesion site ([12]; after 5 weeks): many axons were observed crossing the injury site; RARβ2 expression in CST neuronal cell bodies ([12]; applied to the lateral ventricle for 2 weeks): upregulation of RARβ 2; Behavioural tests after 5 weeks (CST lesion) ([12]; grid walk and beam walk): performed as well as non-lesioned animals; Functional recovery of the forelimb in beam task (footslips), time of recovery [12, 15]: 2 weeks post lesion; Functional recovery of the forelimb in grid task (footslips), time of recovery [12, 15]: 4 weeks post lesion; Selectivity over RARγ (RARγ [4]; Table 1, all human data): 1.9-fold; Axon/neurite outgrowth from cultured adult cortex of treated animals (cortex explants): did grow; Selectivity over RARα (RARα [6]; Table 1, all human data): 11-fold; Increase in neuronal phospho-Akt (not total Akt) compared to control cultures (phospho-Akt): 4 fold; Selectivity RARβ over RARγ (RARγ [13]): 12 fold; EC50 (RARβ [10]; Table 1, all human data, read-out: RARβ potency EC50): 0.83 nM
